Measured values as given in patent US20160208339A1, “BIOMARKERS CORRELATED TO PARP INHIBITOR TREATMENT SUCCESS IN AML PATIENTS” (KING'S COLLEGE LONDON, priority 2013, published 2016).
pIC50: −log10 of the molar value.

Legend:
[1] = test system: MLL-AF9 transformed cells; test: Clonogenic assay in methylcellulose, RTTA-transformed primary leukaemic cells; type: cell-based, mouse; conditions: 1 μM, methylcellulose 7 days
Protocol: (§1) FIG. 2 AML1-ETO and PML-RARα leukemic cells are sensitive to PARPi. A) Representative scheme of experimental procedures. B) Non linear regression dose response curve. Normal bone marrow c-kit cells and pre-leukaemic cells expressing the oncofusion proteins AML1-ETO, E2A-PBX, MLL-AF9 and PML-RARα were grown in methylcellulose for 7 days with escalating doses of PARPi. Data representative of three independent experiments are shown. C) Percentage of survival of preleukemic cells to PARPi. The number of colonies surviving to seven days incubation with PARPi treatment was normalized against the untreated control. Data representative of six independent experiments are shown ±SD. […] D) Colony morphology (phase contrast microscopy, magnification 40×). Representative pictures are shown. E) Efficiency of PARP1 Knock down (KD) in NIH3T3 cells infected with retroviral vectors expressing shRNA against mouse PARP1. qPCR data showing expression of PARP1 mRNA in NIH3T3 after infection with sh-mPARP1. Data representative of two independent experiments are shown ±SD. Paired two-tailed t test was performed between empty vector and i) scramble, ii) sh-PARP1-A and iii) sh-PARP1-D*p<0.05. F) Efficiency of PARP1 by Western Blot. Western Blot data showing protein level of PARP1 in NIH3T3 after infection with sh-mPARP1. G) Efficiency of PARP1 KD in leukemic cells infected with retroviral vectors expressing shRNA against mouse PARP1. qPCR data showing expression of PARP1 mRNA in leukemic cells after infection with sh-mPARP1. Data representative of three independent experiments are shown ±SD. 2-way Anova test was performed between empty vector and i) scramble, ii) sh-PARP1-A and iii) sh-PARP1-D*p<0.05, **p<0.01, ***p<0.001. H) Relative number of colonies arisen from leukemic cells transformed by indicated oncoproteins after shPARP1-mediated KD. Bone marrow cells were co-transduced with retroviral vectors carrying the oncogene of interest and empty vector or sh-scramble or shPARP1. The number of colonies was normalized against the empty vector control. Data representative of three independent experiments are shown ±SD. 2-way Anova test was performed between empty vector and i) scramble, ii) sh-PARP1-A and iii) sh-PARP1-D*p<0.05, **p<0.01, ***p<0.001. I) Colony morphology from phase contrast microscopy (magnification 40×). Representative pictures are shown. […] The number of colonies after PARPi treatment was normalized against the untreated control. Data representative of three independent experiments are shown ±SD. […] K) Colony morphology (phase contrast microscopy, magnification 20×). Representative pictures are shown. […] The number of colonies after PARPi treatment was normalized against the untreated control. Data representative of three independent experiments are shown ±SD. […] M) Colony morphology (phase contrast microscopy, magnification 20×). Representative pictures are shown. […] The number of colonies after PARPi treatment was normalized against the untreated control. Data representative of three independent experiments are shown ±SD. […] O) Colony morphology (phase contrast microscopy, magnification 20×). Representative pictures are shown.
(§2) Briefly, c-kit positive progenitor cells of wild type Ly5.1 mouse bone marrow transduced with a retroviral vector expressing the LATFs of interest were plated into a methylcellulose medium supplemented with appropriate myeloid cytokines. Replating was performed every week to generate primary cell lines for further analysis. […] Veliparib is an inhibitor of PARP1/2 produced by Abbott and widely used in clinical trials.

[2] = test system: E2A-PBX transformed cells; test: as above; type: cell-based, mouse; conditions: 1 μM, methylcellulose 7 days
Protocol: as §1, §2

[3] = test system: AML1-ETO transformed cells; test: as above; type: cell-based, mouse
Protocol: as §1, §2

[4] = test system: PML-RARα transformed cells; test: as above; type: cell-based, mouse
Protocol: as §1, §2

[5] = test system: Kasumi human cells expressing the oncogene AML1-ETO; test: Survival of NSG mice injected intra-femur with Kasumi human cells; type: in vivo
Protocol: (§3) A) Kaplan-Meier survival curve relative to NSG mice injected with NB4 human cells. NB4 human cells expressing the oncogene PML-RARα were injected intravenously in NSG mice and distributed in two groups. […] Treatment was performed for two weeks. Mice were monitored daily until the development of symptoms of leukaemia, when bone marrow (B), spleen (C) and liver (D) were harvested, processed, stained with PE-conjugated antibody against human CD33 and analysed by FACS, to quantify the human cell engraftment in these organs. E) Kaplan-Meier survival curve relative to NSG mice injected with Kasumi human cells. Kasumi human cells expressing the oncogene AML1-ETO were injected intra-femur in NSG mice and distributed in two groups. […] Treatment was performed for two weeks. Mice were monitored daily until the development of symptoms of leukaemia, when bone marrow (F), spleen (G) and liver (H) were harvested, processed, stained with PE-conjugated antibody against human CD33 and analysed by FACS, to quantify the human cell engraftment in these organs. I) and J Kaplan-Meier survival curves of FVB and C57Bl/6 mice injected with M4-PML-RARα and MLL-AF9 cells, respectively. ATRA resistant M4-PML-RARα cells were injected intravenously in FVB mice and distributed in three groups. […] Mice were monitored daily until the development of symptoms of leukaemia, when bone marrow (K), spleen (L) and liver (M) were harvested, processed, stained with PE-conjugated antibody against mouse Gr1 and analysed by FACS, to quantify the human cell engraftment in these organs. […]
(§4) In order to test the efficacy of this treatment in vivo, we transplanted Kasumi and NB4 cell lines into a small cohort of sublethally irradiated NOD/SCID/IL2Rg−/− (NSG) mice by intra-femoral and intravenous injection, respectively. […] The maximum dose tolerated was calculated by in vivo dose-response experiments. Mice were monitored daily until they developed symptoms of leukaemia, when they were culled and bone marrow, spleen and liver harvested and analyzed by FACS. […]

[6] = test system: untargeted population of ovarian cancer; conditions: phase II; cited from earlier work
[7] = test system: NB4 human cells expressing the oncogene PML-RARα; test: Survival of NSG mice injected intravenously with NB4 human cells; type: in vivo
Protocol: as §3, §4

[8] = test system: ATRA resistant M4-PML-RARα cells; test: ATRA resistant mouse model, FVB mice injected with M4-PML-RARα cells; type: in vivo; conditions: Olaparib 50 mg/kg intra-peritoneal daily for two weeks
Protocol: as §3, with “organs.” for “organs. I) and J Kaplan-Meier survival curves of FVB and C57Bl/6 mice injected with M4-PML-RARα and MLL-AF9 cells, respectively. ATRA resistant M4-PML-RARα cells were injected intravenously in FVB mice and distributed in three groups.”

[9] = test system: MLL-AF9 cells; test: C57Bl/6 mice injected with leukaemic MLL-AF9 cells; type: in vivo; conditions: Olaparib 50 mg/kg intra-peritoneal daily for two weeks
Protocol: as §3, with “organs.” for “organs. I) and J Kaplan-Meier survival curves of FVB and C57Bl/6 mice injected with M4-PML-RARα and MLL-AF9 cells, respectively. ATRA resistant M4-PML-RARα cells were injected intravenously in FVB mice and distributed in three groups.”

[10] = test system: breast, prostate and ovarian cancer patients carrying mutations in BRCA1 or BRCA2 genes; conditions: phase I and phase II trials; cited from earlier work
[11] = test system: Kasumi; test: Colony assay in methylcellulose, human cell line; type: cell-based; conditions: Olaparib 1-5 μM, methylcellulose 7 days
Protocol: (§5) FIG. 2 AML1-ETO and PML-RARα leukemic cells are sensitive to PARPi. A) Representative scheme of experimental procedures. B) Non linear regression dose response curve. Normal bone marrow c-kit cells and pre-leukaemic cells expressing the oncofusion proteins AML1-ETO, E2A-PBX, MLL-AF9 and PML-RARα were grown in methylcellulose for 7 days with escalating doses of PARPi. Data representative of three independent experiments are shown. C) Percentage of survival of preleukemic cells to PARPi. The number of colonies surviving to seven days incubation with PARPi treatment was normalized against the untreated control. Data representative of six independent experiments are shown ±SD. […] D) Colony morphology (phase contrast microscopy, magnification 40×). Representative pictures are shown. E) Efficiency of PARP1 Knock down (KD) in NIH3T3 cells infected with retroviral vectors expressing shRNA against mouse PARP1. qPCR data showing expression of PARP1 mRNA in NIH3T3 after infection with sh-mPARP1. Data representative of two independent experiments are shown ±SD. Paired two-tailed t test was performed between empty vector and i) scramble, ii) sh-PARP1-A and iii) sh-PARP1-D*p<0.05. F) Efficiency of PARP1 by Western Blot. Western Blot data showing protein level of PARP1 in NIH3T3 after infection with sh-mPARP1. […]

[12] = test system: NB4; test: Colony assay in methylcellulose, human cell line; type: cell-based; conditions: Olaparib 1-5 μM, methylcellulose 7 days
Protocol: as §5

[13] = test system: NB4-LR2; test: Colony assay in methylcellulose, ATRA resistant APL cell model; type: cell-based, human; conditions: Olaparib 5 μM, methylcellulose 7 days
Protocol: as §5

[14] = test system: NB4-MR2; test: as above; type: cell-based, human; conditions: Olaparib 5 μM, methylcellulose 7 days
Protocol: as §5

[15] = test system: bone marrow c-kit+ cells; test: PARPi titration, colony assay in methylcellulose, normal bone marrow cells; type: cell-based; conditions: Mus musculus, Bone marrow cell, 168 h; colonies counted after seven days in methylcellulose; nonlinear regression
Protocol: FIG. 1 PARPi titration. A) PARPi titration in normal bone marrow c-kit cells grown in methylcellulose for 7 days. Data representative of three independent experiments are shown ±SD. […] B) Non linear regression dose response curve, obtained by logarithmic transformation of the data presented in the panel A. C) Colony morphology (contrast microscopy magnification 40×). Representative pictures are shown.
Bone marrow cells were treated with escalating doses of Olaparib in methylcellulose. After seven days colonies were counted. The number of colonies obtained in the untreated condition was set as the top value (100%). The bottom value (0) was calculated as the lowest concentration resulting in no colonies. The data where then analyzed in a nonlinear regression dose-response curve (FIG. 1).

[16] = Olaparib 25 mg/kg daily for two weeks, FACS human CD33
[17] = Olaparib 25 mg/kg intra-peritoneal daily for two weeks

C[C@]1(c2nc3c(C(N)=O)cccc3[nH]2)CCCN1 [Veliparib, 2-((R)-2-methylpyrrolidin-2-yl)-1H-benzimidazole-4-carboxamide]
effect on colonies [1]: no effect
effect on colonies [2]: no effect
effect on colonies ([3]; 1 μM, methylcellulose 7 days): reduced colonies
effect on colonies ([4]; 1 μM, methylcellulose 7 days): reduced colonies

O=C(c1cc(Cc2n[nH]c(=O)c3ccccc23)ccc1F)N1CCN(C(=O)C2CC2)CC1 [Olaparib, 4-[(3-[(4-cyclopropylcarbonyl)piperazin-4-yl]carbonyl)-4-fluorophenyl]methyl(2H)-phthalazin-1-one]
engraftment in bone marrow, spleen and liver [5, 16]: variable reduction
onset of the leukaemia [5, 17]: significantly delayed
median survival ([5]; Olaparib 25 mg/kg intra-peritoneal daily for two weeks, control 50 days, experiment still ongoing): 115 days
overall survival benefit compared to chemotherapy [6]: failed to show overall survival benefit
engraftment in bone marrow, spleen and liver [7, 16]: variable reduction
onset of the leukaemia [7, 17]: significantly delayed
median survival ([7]; Olaparib 25 mg/kg intra-peritoneal daily for two weeks, control 30 days): 47 days
pIC50 ([3]; Mus musculus, 168 h): 7.48
reduction in colony forming ability ([3]; Olaparib 1 uM, p<0.05): 70-90%
reduction of number of colonies after additional replating ([3]; replating in semi-solid medium containing Olaparib, p<0.05): 90%
pIC50 ([4]; Mus musculus, 168 h): 7.80
reduction in colony forming ability ([4]; Olaparib 1 uM, p<0.05): 70-90%
onset of the leukaemia [8]: significantly delayed
effect on mice developing leukaemia [9]: did not have any significant effect
anti-tumour effect [10]: anti-tumour effect
side effects [10]: grade 1 or 2
efficacy on colony number [11]: confirm the efficacy
efficacy on colony number [12]: confirm the efficacy
sensitivity (colony number) [13]: extremely sensitive
sensitivity (colony number) [14]: extremely sensitive
pIC50 [15]: 5.72
